# Data from patent publication US5998435A, “Use of a tachykinin antagonist for the manufacture of a medicament for the treatment of emesis” (priority 1998, dated 1999).
# Entries after “also recorded” stand apart in the source; their conditions may differ. Where two headings read alike, the source gives them in different places.
# Legend:
# pancreatic amylase = experiment: Secretion of pancreatic amylase in the rat; assay type: in vivo; conditions: 0.01-10 mg/kg i.v.
# [1] = Blood pressure and heart rate of anaesthetized guinea-pigs; assay type: in vivo, guinea-pig; conditions: 0.1-1.0 mg/kg i.v.
# [2] = Side effect liability: sedation or ataxia in the mouse; assay type: in vivo; conditions: up to 100 mg/kg s.c.
# [3] = Pharmacokinetics and oral bioavailability in the rat; assay type: in vivo; conditions: plasma; for Cmax: fasted male Wistar rats; for AUC(0-inf): read-out: AUC zero to infinite time; for half-life: read-out: t1/2 terminal elimination half-life (converted); for clearance: read-out: Cl total systemic clearance; for Vd: read-out: Vd steady-state volume of distribution
# Procedure: 0.5% methyl cellulose, and nanosystem vehicle, The drug was administered either PO by gavage or IV via jugular vein. Blood samples were drawn from jugular vein cannulac into syringes containing heparin before dosing and at different times up to 24 hours postdose. Plasma was harvested by centrifugation and stored at -20° C. until analysis. Plasma samples were analyzed for The Compound using a validated liquid chromatographic method.
# [4] = system: copper sulphate-induced emesis; experiment: Copper sulphate-induced emesis in the ferret; conditions: Mustela putorius, 2 h, read-out: MED, copper sulphate-induced emesis
# [5] = system: vehicle-induced emetic response; experiment: PEG-200 vehicle-induced emetic response in the ferret; assay type: in vivo; conditions: 10 mg/kg; PEG-200 1 mL/kg i.p.
# [6] = Side effect liability: sedation or ataxia in the hamster; assay type: in vivo; conditions: up to 100 mg/kg s.c.
# [7] = Brain penetration in the rat using HPLC assay; assay type: in vivo; conditions: for Tmax: read-out: time of highest brain concentration (converted);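 for % Dose in Brain: IV 4.5 mg/kg via tail vein or PO 21.4 mg/kg by gavage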;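 for amount in brain: IV 4.5 mg/kg via tail vein or PO 21.4 mg/kg by gavage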
# Procedure: Three rats were used for each time point. Prior to blood and brain sampling, rats were anesthetized with ether. Blood samples were collected by cardiac puncture. After transcardiac perfusion with normal saline, whole brains were collected. Plasma and brain samples were analyzed using liquid chromatographic florescence detection methods. […] Total amount in brain at these times was respectively 2.5 and 0.04 μg (Tables 2 and 13). Brain to plasma concentration ratio after IV administration was highest (1.8) at 15 minutes and then decreased to a steady value approximately 0.5 at later postdose times (Table 2).
# cisplatin-induced emesis [8] = conditions: cisplatin 5 mg/kg i.p.; The Compound 10 mg/kg or ondansetron 1 mg/kg i.p. three times a day
# NK1 recognition sites [9] = target: NK1 recognition sites (Mustela putorius, UniProt M3YAE5); experiment: NK1 binding, ferret
# [10] = system: apomorphine-induced emesis; experiment: Apomorphine-induced emesis in the ferret; conditions: Mustela putorius, 1 h, read-out: MED, apomorphine-induced emesis
# NK1 recognition sites [11] = target: T1, NK1 recognition sites (Mesocricetus auratus, UniProt A0A1U7QPR6); experiment: NK1 binding, hamster brain
# T1 construct: NK1 recognition sites present in human cell line, guinea pig, dog, ferret, and hamster brain; from tissue; host or cells: hamster brain
# cisplatin-induced emesis [12] = experiment: Cisplatin-induced acute emesis in the ferret; assay type: in vivo
# Description: Adult male albino Fitch ferrets (>1 kg weight) were individually housed with free access to food (SDS Diet "C", Special Diet Services Ltd, Essex, U.K.). Thirty minutes prior to the commencement of the studies, the ferrets were presented with 100 g of commercially available tinned cat food.
# T1 sequence (A0A1U7QPR6 1-407): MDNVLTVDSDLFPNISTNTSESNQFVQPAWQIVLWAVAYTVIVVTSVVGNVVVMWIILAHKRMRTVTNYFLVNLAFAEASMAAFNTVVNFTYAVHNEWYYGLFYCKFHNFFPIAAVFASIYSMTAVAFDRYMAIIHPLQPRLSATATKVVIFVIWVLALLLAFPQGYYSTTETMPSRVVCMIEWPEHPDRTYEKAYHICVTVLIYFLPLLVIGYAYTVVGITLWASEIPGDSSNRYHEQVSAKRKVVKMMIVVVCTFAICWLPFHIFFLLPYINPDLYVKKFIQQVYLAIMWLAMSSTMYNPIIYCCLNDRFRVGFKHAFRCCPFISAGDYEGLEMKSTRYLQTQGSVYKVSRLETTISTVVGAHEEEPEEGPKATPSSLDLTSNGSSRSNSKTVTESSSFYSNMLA
# Sequence of NK1 recognition sites (Mustela putorius, UniProt M3YAE5) (M3YAE5 1-407): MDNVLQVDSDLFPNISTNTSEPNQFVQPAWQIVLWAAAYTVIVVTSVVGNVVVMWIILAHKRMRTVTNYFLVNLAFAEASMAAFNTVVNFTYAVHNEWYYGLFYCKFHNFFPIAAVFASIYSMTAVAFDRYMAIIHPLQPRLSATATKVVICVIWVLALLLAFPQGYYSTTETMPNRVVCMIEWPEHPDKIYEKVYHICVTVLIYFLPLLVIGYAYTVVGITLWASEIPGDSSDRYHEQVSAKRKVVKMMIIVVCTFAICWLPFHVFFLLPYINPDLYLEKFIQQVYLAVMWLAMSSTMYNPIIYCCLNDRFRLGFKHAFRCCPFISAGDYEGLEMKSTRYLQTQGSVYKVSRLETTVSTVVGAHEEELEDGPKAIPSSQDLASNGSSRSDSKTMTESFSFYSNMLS
structure (smiles),measurement,setting,value
"C[C@H](NC(=O)[C@@](C)(Cc1c[nH]c2ccccc12)NC(=O)OCc1cc2ccccc2o1)c1ccccc1 [The Compound, [R,S]-[2-(1H-Indol-3-yl)-1-methyl-1-(1-phenyl-ethylcarbamoyl)-ethyl]-carbamic acid benzofuran-2-ylmethyl ester]",stimulation of secretion of pancreatic amylase,pancreatic amylase,failed
same,blood pressure,[1],failed to affect
same,heart rate,[1],failed to affect
same,ataxia,[2],failed to induce
same,sedation,[2],failed to induce
same,Tmax,[3]; MC suspension PO 3.7 mg/kg,3.5 h
same,Cmax,[3]; MC suspension PO 3.7 mg/kg,15.1 ng/mL
same,bioavailability,"[3]; MC suspension PO 3.7 mg/kg, read-out: % F absolute oral bioavailability",4.1%
same,AUC(0-inf),[3]; MC suspension PO 3.7 mg/kg,107 ng·h/mL
same,half-life,[3]; MC suspension PO 3.7 mg/kg,2.8 h
same,AUC(0-inf),[3]; NANOSUSPENSION IV 4.6 mg/kg,2790 ng·h/mL
same,clearance,[3]; NANOSUSPENSION IV 4.6 mg/kg,27.8 mL/min/kg
same,Vd,[3]; NANOSUSPENSION IV 4.6 mg/kg,3.7 L/kg
same,half-life,[3]; NANOSUSPENSION IV 4.6 mg/kg,4.8 h
same,Tmax,[3]; NANOSUSPENSION PO 18.4 mg/kg,2.3 h
same,Cmax,[3]; NANOSUSPENSION PO 18.4 mg/kg,643 ng/mL
same,bioavailability,"[3]; NANOSUSPENSION PO 18.4 mg/kg, read-out: % F absolute oral bioavailability",47%
same,AUC(0-inf),[3]; NANOSUSPENSION PO 18.4 mg/kg,5220 ng·h/mL
same,half-life,[3]; NANOSUSPENSION PO 18.4 mg/kg,2.5 h
same,AUC(0-inf),[3]; PEG-400 solution IV 5 mg/kg,3560 ng·h/mL
same,clearance,[3]; PEG-400 solution IV 5 mg/kg,23.9 mL/min/kg
same,Vd,[3]; PEG-400 solution IV 5 mg/kg,3 L/kg
same,half-life,[3]; PEG-400 solution IV 5 mg/kg,3.5 h
same,Tmax,[3]; PEG-400 solution PO 20 mg/kg,5 h
same,Cmax,[3]; PEG-400 solution PO 20 mg/kg,774 ng/mL
same,bioavailability,"[3]; PEG-400 solution PO 20 mg/kg, read-out: % F absolute oral bioavailability",49%
same,AUC(0-inf),[3]; PEG-400 solution PO 20 mg/kg,6960 ng·h/mL
same,half-life,[3]; PEG-400 solution PO 20 mg/kg,3 h
same,bioavailability,"[3]; po, nanosuspension and PEG/EtOH/Water vehicles, read-out: absolute oral bioavailability",47 to 49%
same,minimal effective dose,[4],30 mg/kg
same,antagonism of vehicle-induced emetic response,[5],completely antagonized
same,ataxia,[6],failed to induce
same,sedation,[6],failed to induce
same,total amount in brain,"[7]; IV 4.5 mg/kg, 15 minutes",2.5 µg
same,Brain Conc. (BC),"[7]; IV bolus 4.5 mg/kg in PEG-400/EtOH/Water, 0.25 h, 4.5 mg/kg, 15 min",1448 ± 456 ng/g
same,% Dose in Brain,"[7]; IV bolus 4.5 mg/kg, 0.25 h",0.235 ± 0.051%
same,Amount in Brain,"[7]; IV bolus 4.5 mg/kg, 0.25 h",2711 ± 668 ng
same,% Dose in Brain,"[7]; IV bolus 4.5 mg/kg, 2 h",0.0098%
same,Amount in Brain,"[7]; IV bolus 4.5 mg/kg, 2 h",114 ± 8.6 ng
same,% Dose in Brain,"[7]; IV bolus 4.5 mg/kg, 4 h",0.0033 ± 0.0003%
same,Amount in Brain,"[7]; IV bolus 4.5 mg/kg, 4 h",40 ± 3.4 ng
same,% Dose in Brain,"[7]; IV bolus 4.5 mg/kg, 8 h",0.0078%
same,Amount in Brain,"[7]; IV bolus 4.5 mg/kg, 8 h",9.6 ng
same,% Dose in Brain,"[7]; PO 21.4 mg/kg, 0.25 h",0.00095 ± 0.00053%
same,Amount in Brain,"[7]; PO 21.4 mg/kg, 0.25 h",57 ± 31 ng
same,% Dose in Brain,"[7]; PO 21.4 mg/kg, 2 h",0.00291%
same,Amount in Brain,"[7]; PO 21.4 mg/kg, 2 h",189 ± 156 ng
same,total amount in brain,"[7]; PO 21.4 mg/kg, 2 hours",0.04 µg
same,% Dose in Brain,"[7]; PO 21.4 mg/kg, 4 h",0.0064%
same,Amount in Brain,"[7]; PO 21.4 mg/kg, 4 h",410 ± 333 ng
same,% Dose in Brain,"[7]; PO 21.4 mg/kg, 8 h",0.0013 ± 0.0012%
same,Amount in Brain,"[7]; PO 21.4 mg/kg, 8 h",81 ± 73 ng
same,% Dose in Brain,"[7]; PO 21.4 mg/kg, 12 h",0.00047 ± 0.00017%
same,Amount in Brain,"[7]; PO 21.4 mg/kg, 12 h",30 ng
same,Tmax,"[7]; brain, IV 4.5 mg/kg",0.25 h
same,Tmax,"[7]; brain, PO 21.4 mg/kg",2 h
same,Kp,"[7]; brain, iv, 4.5 mg/kg, IV 4.5 mg/kg, later postdose times, read-out: brain to plasma concentration ratio, steady value",~0.5
same,concentration at 0.25 h,"[7]; brain, iv, 4.5 mg/kg, IV bolus 4.5 mg/kg in PEG-400/EtOH/Water, 0.25 h, read-out: Brain Conc. (BC)",1400 ng/g
same,Kp at 0.25 h,"[7]; brain, iv, 4.5 mg/kg, IV bolus 4.5 mg/kg, 0.25 h, read-out: BC/PC Ratio",1.8
same,Kp at 2 h,"[7]; brain, iv, 4.5 mg/kg, IV bolus 4.5 mg/kg, 2 h, read-out: BC/PC Ratio",0.47 ± 0.11
same,concentration at 2 h,"[7]; brain, iv, 4.5 mg/kg, IV bolus 4.5 mg/kg, 2 h, read-out: Brain Conc. (BC)",57 ± 4.5 ng/g
same,Kp at 4 h,"[7]; brain, iv, 4.5 mg/kg, IV bolus 4.5 mg/kg, 4 h, read-out: BC/PC Ratio",0.47 ± 0.05
same,concentration at 4 h,"[7]; brain, iv, 4.5 mg/kg, IV bolus 4.5 mg/kg, 4 h, read-out: Brain Conc. (BC)",20 ± 1.9 ng/g
same,concentration at 8 h,"[7]; brain, iv, 4.5 mg/kg, IV bolus 4.5 mg/kg, 8 h, N = 1, read-out: Brain Conc. (BC)",4.8 ng/g
same,Kp at 8 h,"[7]; brain, iv, 4.5 mg/kg, IV bolus 4.5 mg/kg, 8 h, read-out: BC/PC Ratio",0.52
same,concentration at 0.25 h,"[7]; brain, po, 21.4 mg/kg, PO 21.4 mg/kg in PEG-400/EtOH/Water, 0.25 h, read-out: Brain Conc. (BC)",31 ± 17 ng/g
same,Kp at 0.25 h,"[7]; brain, po, 21.4 mg/kg, PO 21.4 mg/kg, 0.25 h, read-out: BC/PC Ratio",0.27 ± 0.06
same,Kp at 2 h,"[7]; brain, po, 21.4 mg/kg, PO 21.4 mg/kg, 2 h, read-out: BC/PC Ratio",0.3 ± 0.03
same,concentration at 2 h,"[7]; brain, po, 21.4 mg/kg, PO 21.4 mg/kg, 2 h, read-out: Brain Conc. (BC)",96 ± 79 ng/g
same,Kp at 4 h,"[7]; brain, po, 21.4 mg/kg, PO 21.4 mg/kg, 4 h, read-out: BC/PC Ratio",0.29 ± 0.09
same,concentration at 4 h,"[7]; brain, po, 21.4 mg/kg, PO 21.4 mg/kg, 4 h, read-out: Brain Conc. (BC)",212 ± 168 ng/g
same,Kp at 8 h,"[7]; brain, po, 21.4 mg/kg, PO 21.4 mg/kg, 8 h, read-out: BC/PC Ratio",0.33 ± 0.11
same,concentration at 8 h,"[7]; brain, po, 21.4 mg/kg, PO 21.4 mg/kg, 8 h, read-out: Brain Conc. (BC)",41 ± 38 ng/g
same,Kp at 12 h,"[7]; brain, po, 21.4 mg/kg, PO 21.4 mg/kg, 12 h, read-out: BC/PC Ratio",0.41 ± 0.27
same,concentration at 12 h,"[7]; brain, po, 21.4 mg/kg, PO 21.4 mg/kg, 12 h, read-out: Brain Conc. (BC)",15 ± 5 ng/g
same,penetration into the brain,[7]; following IV administration,fast
same,concentration at 0.25 h,"[7]; plasma, iv, 4.5 mg/kg, IV bolus 4.5 mg/kg, 0.25 h, read-out: Plasma Conc. (PC)",819 ± 87 ng/mL
same,concentration at 2 h,"[7]; plasma, iv, 4.5 mg/kg, IV bolus 4.5 mg/kg, 2 h, read-out: Plasma Conc. (PC)",124 ± 17 ng/mL
same,concentration at 4 h,"[7]; plasma, iv, 4.5 mg/kg, IV bolus 4.5 mg/kg, 4 h, read-out: Plasma Conc. (PC)",43 ± 5.6 ng/mL
same,concentration at 8 h,"[7]; plasma, iv, 4.5 mg/kg, IV bolus 4.5 mg/kg, 8 h, read-out: Plasma Conc. (PC)",5.6 ± 3.3 ng/mL
same,concentration at 12 h,"[7]; plasma, iv, 4.5 mg/kg, IV bolus 4.5 mg/kg, 12 h, read-out: Plasma Conc. (PC)",4 ± 1.1 ng/mL
same,concentration at 0.25 h,"[7]; plasma, po, 21.4 mg/kg, PO 21.4 mg/kg, 0.25 h, read-out: Plasma Conc. (PC)",126 ± 92 ng/mL
same,concentration at 2 h,"[7]; plasma, po, 21.4 mg/kg, PO 21.4 mg/kg, 2 h, read-out: Plasma Conc. (PC)",301 ± 244 ng/mL
same,concentration at 4 h,"[7]; plasma, po, 21.4 mg/kg, PO 21.4 mg/kg, 4 h, read-out: Plasma Conc. (PC)",642 ± 433 ng/mL
same,concentration at 8 h,"[7]; plasma, po, 21.4 mg/kg, PO 21.4 mg/kg, 8 h, read-out: Plasma Conc. (PC)",108 ± 80 ng/mL
same,concentration at 12 h,"[7]; plasma, po, 21.4 mg/kg, PO 21.4 mg/kg, 12 h, read-out: Plasma Conc. (PC)",45 ± 20 ng/mL
same,delayed emesis during the 3 days (3-72 hours),cisplatin-induced emesis [8],completely blocked
same,retching and vomiting during the first 3 hours of the emetic response (acute),cisplatin-induced emesis [8],completely blocked
same,affinity to NK1 recognition sites,NK1 recognition sites [9],nanamolar affinity
same,minimal effective dose,[10],30 mg/kg
same,affinity to NK1 recognition sites,NK1 recognition sites [11],nanamolar affinity
same,antagonism of the emetic response,"cisplatin-induced emesis [12]; 30 mg/kg i.p., cisplatin 10 mg/kg i.p.",complete antagonism; also recorded: completely antagonized
same,minimal effective dose,"cisplatin-induced emesis [12]; Mustela putorius, i.p. in PEG-200, 3-30 mg/kg, 1 hour before cisplatin 10 mg/kg i.p., 4-hour observation, read-out: minimum effective dose, frequency of vomiting and retching",3 mg/kg
